Source: US10968214B2, “KRas G12C inhibitors” (Eli Lilly and Company, priority 2018, dated 2021)
Like-named read-outs stand apart in the source and are kept apart here.

Key:
SW1463 = test: CellTiterGlo Cell Proliferation Assay, SW1463; assay type: cell-based; settings: Homo sapiens, KRas G12C, colon, 96 hr, read-out: IC50 (μM) in 2 D cell proliferation
Description: (§1) A panel of tumor cell lines harboring KRas G12C or other KRas mutations are collected (Table 6). All cell lines are from ATCC or other sources indicated.
(§2) Typically cells are cultured in RPMI1640 or Dulbecco's modified Eagle's medium (DMEM, GIBCO) supplemented with 10% FBS (GIBCO, Invitrogen). For 2D culture cells (4×10^3/well) maintained in growth medium described above, are plated onto 96 well tissue culture plates Corning® Cat. 3603) a day before the treatment. For 3D culture 8000 cells/well are seeded onto 96 well ultra-low attachment tissue culture plates (Corning, #3474). The cells are treated compound for 96 hr, and then are analyzed for viability using the CellTiterGlo® Luminescent Cell Viability Assay® (Promega #G7572 for 2D and Promega #G9683 for 3D cultures) according to manufacturer's instructions and an EnVision™ plate reader. Nonlinear regression and sigmoidal dose-response curves are used to calculate the half maximal inhibitory concentration (IC50) with GraphPad Prism 4® software.

Calu-6 = test: CellTiterGlo Cell Proliferation Assay, Calu-6; assay type: cell-based; settings: Homo sapiens, KRas Q61K, lung, 96 hr
Description: as §1, §2

[1] = test system: pMEK in H358 xenograft tumors; test: In vivo target inhibition/PD, H358 xenograft, pMEK; parameters: species or system mouse; settings: for inhibition at 30 mg/kg: 30 mg/kg single dose
Description: To evaluate in vivo target inhibition and anti-tumor efficacy of a compound, Human lung cancer cells, H358 or H2122 are implanted into nude mice xenograft tumor models. Either H358 or H2122 cells (10×10^6 in a 1:1 Matrigel® mix, 0.2 mL total volume) are implanted by subcutaneous injection in hind leg of nude female mice (Harlan Laboratories). A total of 5 mice each group are used for efficacy study, and a total of 3-4 mice each group are used for target engagement and PD study. Treatment is initiated with oral administration (gavage) of a test compound or vehicle (20% Captisol®, 25 mM phosphate, pH 2.0 in 0.2 mL volume when the tumor size reaches approximately […]. Tumor growth and body weight are monitored over time to evaluate efficacy and signs of toxicity. Bidimensional measurements of tumors are performed twice a week and tumor volumes are calculated based on mid-axis length and mid-axis width. Tumor volume data are transformed to a log scale to equalize variance across time and treatment groups. The log volume data are analyzed with a two-way repeated measures analysis of variance by time and treatment using the mixed procedures in SAS software (version 8.2). The correlation model for the repeated measures is spatial power. Treated groups are compared to the control group at each time point. The mixed procedure is also used separately for each treatment group to calculate adjusted means and standard errors at each time point. Both analyses account for the autocorrelation within each animal. The adjusted means and standard errors are plotted for each treatment group versus time.
For in vivo target inhibition and PD analysis, tumors are ground by mortar and pestle on dry ice and tumor fragments are added to 800 μL of lysis buffer containing 1% Triton X100, 25 mM Tris pH 7.5, 150 mM NaCl, 1 mM EDTA, and 1 mM EGTA with Halt protease and phosphatase inhibitor cocktail (Thermo Scientific, cat. no. 1861281) in lysing matrix D tubes (MP Biomedical®, cat. no. 6913-500) with one additional large bead (MP Biomedical® ¼″ ceramic sphere bead cat. no. 6540-412) per tube. Tumor fragments are homogenized in a Thermo Bio101® fast prep (FP120) at setting 4 for […] while cold for a total of 2 times. Lysates are spun at 14,000 rpm for 10 min at 4° C. to clarify. Protein estimation is done on the lysate supernatant using a BioRad Dc® protein assay and lysates are diluted in complete lysis/binding buffer from the Ras GTPase Chemi ELISA Kit® (Active Motif, cat. no. 52097). The active KRas ELISA was performed as follows: Glutathione-coated ELISA wells were incubated with diluted RAF1-GST in complete lysis/binding buffer for 1 hr at 4° C. with gentle agitation. Wells are washed 3 times with wash buffer and 100 μg of lysates are added to each well and incubated at RT for 1 hr with mild agitation. The wells are washed an additional 3 times, then primary antibody, diluted in antibody binding buffer, is added to each well. The plates are incubated for 1 hr. The wells are washed 3 more times before adding HRP-conjugated secondary antibody, diluted in antibody binding buffer, to each well. The plates are incubated at RT for 1 hr. ELISA wells are washed 4 times, chemiluminescent reagents is added and then luminescence is read. For pERK Meso Scale Discovery ELISA, 25 μg of protein containing 0.1% SDS is used; for pMEK Meso Scale Discovery ELISA, 50 μg of protein without SDS is used. Meso Scale Discovery Whole Cell Lysate Kits for pERK and pMEK are provided by Meso Scale Discovery.
The tumor samples are collected 4 hr post a single dose. The tumor lysates are prepared and the inhibition of pERK, pMEK, and active KRas is measured as described above.
After a single dose, the tumor samples are harvested at 2, 4, 8, 12 and 24 hr post doing. The tumor lysates are prepared and the inhibition of pERK, pMEK, and active KRas is measured as described above.

HCC44 xenograft = test: Anti-tumor growth activity, HCC44 lung xenograft; assay type: in vivo; settings: 28 Day, negative = regression

IC50 (SW1463): 0.013 µM
IC50 (Calu-6; read-out: IC50 (μM) in 2 D cell proliferation): 12.1 µM
IC50 (Calu-6; read-out: IC50 (μM) in 3 D spheroid cell proliferation): 19.5 µM
EC50 ([1]; Mus musculus, NCI-H358, H358 xenograft, plasma exposure by mass spectrum, read-out: plasma concentration to achieve 50% target inhibition (TEC50), pMEK): 0.515 µM
Structure (SMILES): C=CC(=O)N1CCN(c2ncnc3c(F)c(-c4ccc(F)c5sc(N)nc45)c(Cl)cc23)CC1 [Example 1, 1-{4-[7-(2-Amino-7-fluoro-1,3-benzothiazol-4-yl)-6-chloro-8-fluoroquinazolin-4-yl]piperazin-1-yl}prop-2-en-1-one]
% Inhibition pMEK ([1]; H358 xenograft, time course, 10 mg/kg single dose, 24 hr, 10 mg/kg): 30.4%
dose to achieve 50% target inhibition (TED50), pMEK ([1]; H358 xenograft, single dose, 4 hr): 11.19 mg/kg
inhibition at 10 mg/kg ([1]; Mus musculus, NCI-H358, 2 h, H358 xenograft, time course, 10 mg/kg single dose, 2 hr, read-out: % Inhibition pMEK): 49.2%
inhibition at 30 mg/kg ([1]; Mus musculus, NCI-H358, 2 h, H358 xenograft, time course, 2 hr, read-out: % Inhibition pMEK): 81.4%
inhibition at 10 mg/kg ([1]; Mus musculus, NCI-H358, 4 h, H358 xenograft, time course, 10 mg/kg single dose, 4 hr, read-out: % Inhibition pMEK): 59.5%
inhibition at 30 mg/kg ([1]; Mus musculus, NCI-H358, 4 h, H358 xenograft, time course, 4 hr, read-out: % Inhibition pMEK): 89.3%
inhibition at 1 mg/kg ([1]; Mus musculus, NCI-H358, 4 h, H358 xenograft, 1 mg/kg single dose, 4 hr post dose): -6.2%
inhibition at 3 mg/kg ([1]; Mus musculus, NCI-H358, 4 h, H358 xenograft, 3 mg/kg single dose, 4 hr post dose): 11.1%
inhibition at 10 mg/kg ([1]; Mus musculus, NCI-H358, 4 h, H358 xenograft, 10 mg/kg single dose, 4 hr post dose, read-out: % Inhibition pMEK): 43.1%
inhibition at 30 mg/kg ([1]; Mus musculus, NCI-H358, 4 h, H358 xenograft, 4 hr post dose, read-out: % Inhibition pMEK): 82.1%
inhibition at 100 mg/kg ([1]; Mus musculus, NCI-H358, 4 h, H358 xenograft, 100 mg/kg single dose, 4 hr post dose): 85.8%
inhibition at 10 mg/kg ([1]; Mus musculus, NCI-H358, 8 h, H358 xenograft, time course, 10 mg/kg single dose, 8 hr, read-out: % Inhibition pMEK): 62.4%
inhibition at 30 mg/kg ([1]; Mus musculus, NCI-H358, 8 h, H358 xenograft, time course, 8 hr, read-out: % Inhibition pMEK): 81.8%
inhibition at 10 mg/kg ([1]; Mus musculus, NCI-H358, 12 h, H358 xenograft, time course, 10 mg/kg single dose, 12 hr, read-out: % Inhibition pMEK): 77.9%
inhibition at 30 mg/kg ([1]; Mus musculus, NCI-H358, 12 h, H358 xenograft, time course, 12 hr, read-out: % Inhibition pMEK): 65.8%
inhibition at 10 mg/kg ([1]; Mus musculus, NCI-H358, 24 h, H358 xenograft, time course, 10 mg/kg single dose, 24 hr, read-out: % Inhibition pMEK): 30%
inhibition at 30 mg/kg ([1]; Mus musculus, NCI-H358, 24 h, H358 xenograft, time course, 24 hr, read-out: % Inhibition pMEK): 35%
inhibition at 10 mg/kg ([1]; Mus musculus, NCI-H358, H358 xenograft, 10 mg/kg single dose, from 2-12 hr, read-out: pMEK inhibition): 49 to 78%
inhibition at 30 mg/kg ([1]; Mus musculus, NCI-H358, H358 xenograft, from 2-24 hr, read-out: pMEK inhibition): 35 to 89%
Tumor Growth Inhibition (%) or Regression (−%) (HCC44 xenograft; 15 mg/kg BID): 93.4%
Tumor Growth Inhibition (%) or Regression (−%) (HCC44 xenograft; 30 mg/kg BID): −16.5%
Tumor Growth Inhibition (%) or Regression (−%) (HCC44 xenograft; 30 mg/kg QD): 85.4%
